The text below walks through data of PubChem BioAssay (NCI).

Some test systems named below: EKVX NSCLC; HCT-116 colon; HL-60(TB) leukemia; M14 melanoma; SF-539 CNS; SNB-75 CNS; HCT-15 colon; HS 578T breast; MCF7 breast; T-47D breast.
Common to all, as to test: NCI anticancer screen, dose series, 48 h

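A five-concentration, 48-hour dose response in 96-well plates underlies each endpoint, interpolated linearly between surrounding concentrations. GI50 = concentration required for 50% inhibition of growth. TGI is the concentration that stops growth completely.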

Consider `COc1ccc(CN2C(=O)C(Cc3cc(OC)c(OC)c(C)c3OC)N(C(=O)OC(C)C)C(=O)/C2=C/c2cc(OC)c(OC)c(C)c2OC)cc1` (centres undefined), for which the TGI in the assay on EKVX NSCLC, in the assay with HCT-116 colon, in the assay on HL-60(TB) leukemia, with M14 melanoma, in the assay with SF-539 CNS and with SNB-75 CNS was over 100 µM throughout.
With `O=C1OC(c2ccccc2)C2CC3CC4(CCC3CN12)OCCO4` (centres undefined), the TGI in the assay on EKVX NSCLC, with HCT-116 colon, with HCT-15 colon, in the assay with HL-60(TB) leukemia, with M14 melanoma and in the assay on SF-539 CNS was over 100 µM each time. This compound came in with a TGI in the assay on SNB-75 CNS of over 100 µM.
Regarding `C[C@]12CCC3[C@@H](C[C@H]4OC(=O)[C@@]35CCC(=O)C=C45)C1CCC2=O` (some centres undefined), the TGI with EKVX NSCLC, in the assay on HCT-15 colon, in the assay on HL-60(TB) leukemia, with M14 melanoma and in the assay on SF-539 CNS was over 100 µM in each case.
On to `COc1ccc(-c2cc(-c3ccc(O)cc3)nc3nc(=S)[nH]c(N)c23)cc1`, for which the GI50 in the assay with EKVX NSCLC is 13.5 µM; in the assay on HCT-116 colon, 15.4 µM; in the assay with HCT-15 colon it was 19.6 µM; in the assay on HS 578T breast, 20.6 µM; in the assay with M14 melanoma, 19.7 µM; with MCF7 breast, 12 µM. Also, the GI50 was 2.46 µM in the assay with SF-539 CNS, 26.2 µM with SNB-75 CNS and 14.3 µM in the assay with T-47D breast. In addition, the TGI was determined as 60.7 µM in the assay with EKVX NSCLC; 31.3 µM in the assay with HCT-116 colon; 58 µM in the assay with HCT-15 colon; 48.4 µM in the assay on HS 578T breast; 35.4 µM with M14 melanoma; 35.6 µM with MCF7 breast. In addition, the TGI in the assay with SF-539 CNS is 17.1 µM; in the assay with SNB-75 CNS it was over 100 µM; in the assay with T-47D breast it was 80.1 µM.
As for `C#CC[C@@H]1C[C@]2(C)[C@H]3CC[C@@H]4[C@H]5[C@H](C(=C)C)CC[C@]5(C(=O)O)CC[C@@]4(C)[C@]3(C)CC[C@H]2C(C)(C)[C@H]1O`, the GI50 was 2.63 µM in the assay on EKVX NSCLC; 1.89 µM with HCT-15 colon; 2.57 µM with HL-60(TB) leukemia; 2.34 µM in the assay on HS 578T breast; 2.05 µM with M14 melanoma; 2.67 µM in the assay on SF-539 CNS. Further, the GI50 in the assay with SNB-75 CNS is 1.95 µM; in the assay on T-47D breast, 1.79 µM. Also, the TGI is 10.6 µM in the assay with EKVX NSCLC; 6.61 µM in the assay with HCT-15 colon; over 100 µM in the assay on HL-60(TB) leukemia; 7.01 µM with HS 578T breast; 4.68 µM in the assay with M14 melanoma; 7.88 µM in the assay with SF-539 CNS. Moreover, the results for the TGI with SNB-75 CNS and with T-47D breast were 4.12 µM and 4.66 µM, respectively.
For the compound `CCOc1cc(C=O)c2c(ccc3ccc(OC)c(OC)c32)c1OC`, the TGI with EKVX NSCLC, in the assay on HCT-116 colon, in the assay with HCT-15 colon, with HL-60(TB) leukemia, with HS 578T breast and in the assay with M14 melanoma was over 100 µM each time. The TGI in the assay on SNB-75 CNS and in the assay on T-47D breast was over 100 µM in each case.
Regarding `CN(C)c1ccccc1CC(c1c[nH]c2ccccc12)c1c[nH]c2ccccc12`, the TGI is 18.1 µM in the assay on EKVX NSCLC; 23.3 µM with HCT-116 colon; 28.8 µM in the assay on HCT-15 colon; 25.3 µM in the assay on HL-60(TB) leukemia; 24 µM with M14 melanoma; 31 µM with SF-539 CNS. In the assay on SNB-75 CNS, this compound had a TGI of 22 µM.
In the case of `Cc1cc(C)nc(NS(=O)(=O)c2ccc(NC(=O)c3cccc4c(Nc5ccc(S(=O)(=O)Nc6nc(C)cc(C)n6)cc5)c5ccccc5nc34)cc2)n1`, the TGI is 55.1 µM in the assay on EKVX NSCLC; 26 µM with HCT-116 colon; 49 µM with HCT-15 colon; 48.9 µM with HL-60(TB) leukemia; 54.9 µM with M14 melanoma; 32.6 µM in the assay on SF-539 CNS. The TGI in the assay on SNB-75 CNS was determined as 35.5 µM.
As for `O=c1c2cc(Br)ccc2[nH]c(=S)n1-c1ccc(Br)cc1`, the TGI with EKVX NSCLC was over 100 µM; in the assay on HCT-116 colon, over 100 µM; with HCT-15 colon it was over 100 µM; in the assay with HL-60(TB) leukemia, over 100 µM; in the assay on SF-539 CNS, over 100 µM; in the assay on SNB-75 CNS, 41 µM.
Turning to `Cc1cc2cc(Cl)ccc2nc1C(=O)c1ccccc1`, the TGI is over 100 µM with HCT-116 colon; over 100 µM in the assay on HCT-15 colon; over 100 µM with M14 melanoma; over 100 µM in the assay with SF-539 CNS; 81.9 µM in the assay on SNB-75 CNS.
For the compound `O=C1C(c2ccc([N+](=O)[O-])cc2)=[N+]([O-])c2ccccc21`, the TGI was over 100 µM in the assay with EKVX NSCLC; 64.3 µM in the assay with HCT-116 colon; 54.4 µM with HCT-15 colon; 71.9 µM in the assay with HL-60(TB) leukemia; over 100 µM in the assay on M14 melanoma; over 100 µM with SF-539 CNS. For the same compound, the TGI with SNB-75 CNS was found to be 69 µM.
In the case of `O=C(CCc1nnc2s/c(=C\c3ccc4c(c3)OCO4)c(=O)n12)Nc1cc(Cl)ccc1Cl`, the TGI was over 100 µM in the assay with EKVX NSCLC; over 78.8 µM with HCT-116 colon; over 56.6 µM with HCT-15 colon; over 100 µM in the assay on HL-60(TB) leukemia; over 100 µM with M14 melanoma; over 100 µM in the assay on SF-539 CNS. In addition, the TGI in the assay with SNB-75 CNS was over 100 µM.
Consider `CCOC(=O)NC(=O)c1cn(CCCCCOC(=O)NCCCCCCNC(=O)OCCCCCn2cc(C(=O)NC(=O)OCC)c(=O)[nH]c2=O)c(=O)[nH]c1=O`, for which the TGI in the assay with EKVX NSCLC, in the assay with HCT-116 colon, in the assay with HCT-15 colon, in the assay with HL-60(TB) leukemia, in the assay on M14 melanoma and in the assay with SF-539 CNS was over 100 µM in each case. In the assay with SNB-75 CNS, this compound showed a TGI of over 100 µM.
Take `O=c1oc2c3ccc4ccccc4c3n(CCN3CCOCC3)c2c2ccccc12`: the TGI with EKVX NSCLC, in the assay with HCT-116 colon, in the assay on HL-60(TB) leukemia, in the assay with M14 melanoma, in the assay on SF-539 CNS and with SNB-75 CNS was over 100 µM in each case.
For `COc1ccc2c(c1)CCc1cnn(C3OC(COC(C)=O)C(OC(C)=O)C(OC(C)=O)C3OC(C)=O)c1-2` (centres undefined), the TGI in the assay with EKVX NSCLC, with HCT-116 colon, with HCT-15 colon, in the assay on HL-60(TB) leukemia, in the assay on M14 melanoma and in the assay with SF-539 CNS was over 100 µM throughout. The same compound yielded a TGI with SNB-75 CNS of over 100 µM.
